System: epileptic seizures
Test: Clinical treatment of the inventor's child with mixed epileptic seizure types (case report)
Type: in vivo, human
Details: for effect on the child's epileptic seizures: onset, hundreds of seizures a day, substance given without cannabis extract
From the text: The inventor has a child, who, experienced an abrupt onset of hundreds of absence seizures a day that developed into mixed epileptic seizure types, including absence, focal, atonic, myoclonic-atonic, tonic, and eventually a 10-hour status epilepticus seizure. The Inventor was told their child would die in their sleep from SUDEP and no medication will be able to treat them. […] The child is […] now and has developed normally.

| Compound | effect on the child's epileptic seizures | side effects (child with intractable seizures, Keppra without cannabis extract) |
| --- | --- | --- |
| C=C(C)[C@@H]1CCC(C)=C[C@H]1c1c(O)cc(CCCCC)cc1O [CBD, cannabidiol] | neither did CBD alone |  |
| CC[C@@H](C(N)=O)N1CCCC1=O [Keppra, Levetiracetam] | reduced the frequency of the seizures but could not fully control them | side effects of nausea and “Keppra rage” |

Reference: US20240252450A1, “TREATMENT FOR EPILEPTIC SEIZURES” (priority 2021, published 2024)
